Test results published in patent publication US20210386744A1, “SILDENAFIL FOR USE IN THE TREATMENT OF OSTEOARTHRITIS” (MAZELOTTEN 353 AB under namnandring till ARTROA AB, priority 2018, published 2021).
Entries after “also recorded” stand apart in the source; their conditions may differ.

Tests used:
[1] = test system: Horse chondrocytes from OA horses; assay: ATP-evoked intracellular Ca2+ signalling in horse chondrocytes (fluorescence-based assay, Flexstation 3); assay type: cell-based; conditions: for intracellular Ca2+ release (AUC and peak): ATP 10^-4 M, OA horse chondrocytes
Experimental: Horse chondrocytes from OA horses were stimulated, in a fluorescence-based assay for detecting changes in intracellular Ca^2+ over time, with ATP (10^−4 M). The cells were cultivated in 5.5 mM glucose the whole cultivation period. Ca^2+ responses were measured after the cells were incubated for 24 h with metformin (1 mM), and bupivacaine (10^−12 M). Controls are untreated chondrocytes. The area under the Ca^2+ peak (AUC)(FIG. 1 A) was calculated for each Ca^2+ transient as well as the amplitude (peak) (FIG. 1 B) was expressed as the maximum increase. The cells were obtained from 4 experiments with quadruple wells in each. The level of significance was analyzed using a one-way ANOVA followed by Dunnett'multiple comparisons test. **P<0.01, **P<0.001. Similar data was obtained for human chondrocytes.
Articular cartilage samples were obtained, within 24 h of euthanasia, from the middle carpal joints of six horses (1-8-year-old). […] The horses were euthanized because of reasons unrelated to this study, and the Ethical Committee on Animal Experiments, Stockholm, Sweden, approved the study protocol (Dnr: N378/12).
Following aseptic preparation, cartilage of the dorsal aspect of the radial facet of the third carpal bone was incised with a scalpel, and full-thickness cartilage samples were collected with forceps. The tissue was placed in a sterile saline (0.9% NaCl) solution with gentamicin sulfate (50 mg/l) and amphotericin B (250 μg/ml). Cartilage samples were transported chilled (approx. 5° C.) to the laboratory. Isolation and expansion of chondrocytes were performed as previously described (Ley C, Svala E, Nilton A, Lindahl A, Eloranta M, Ekman S, Skiöldebrand E.Connect Tissue Res. (2011); 52 (4): 290-300). Cells were expanded in passage 1 and cells were seeded at 20,000 cells/cm2 in chondrogenic media to maintain the phenotype, DMEM-high glucose (DMEM-HG) (Thermo Fisher Scientific; Waltham, Mass., USA) supplemented with 14 μg/ml ascorbic acid (Sigma-Aldrich, St. Louis, Mo., USA), 10^−7 M dexamethasone (Sigma-Aldrich), 1 mg/ml human serum albumin (Equitech Bio, Kerville, Tex., USA), 1× insulin-transferrin-selenium (Gibco, Life Technologies, Carlsbad, Calif., USA), 5 μg/ml linoleic acid (Sigma-Aldrich), 1× penicillin-streptomycin (PEST) (Sigma-Aldrich), and 10 ng/ml human transforming growth factor (TGF) β-1 (R&D Systems, Abingdon, UK) for 5 days until confluence, in 96-well culture plates for Ca^2+ or in 6-well culture plates for Western blot analysis.
For restoration the cells were incubated with metformin and bupivacaine at day 4 of cultivation for 24 h. At day 5 the Ca^2+ measurements were performed, medium collected for Western blot analysis and cells were harvested and immediately frozen at −80° C. before analysis. […]

human chondrocytes = assay: Quantitative real-time PCR of growth factors GDF-5 and FGF-18 in chondrocytes; assay type: cell-based; conditions: for FGF18 expression / GDF5 expression: human chondrocytes, treatment of bupivacaine and sildenafil, FIGS. 1C-D
Experimental: Cells (human chondrocytes) aimed for RNA isolation were washed with sterile PBS twice before addition of 1M DL-Dithiothreitol solution (Sigma Aldrich) in lysis buffer (Qiagen). The cells were visually inspected to ensure lysis before transfer to RNAse free, endtoxin-free sample tubes, snap frozen in liquid nitrogen, and stored at −80° C. for RNA isolation. Total RNA was extracted and purified with a commercially available kit (RNeasy mini kit, Qiagen) in accordance with the manufacturer's protocol. In brief, cells in lysis buffer were thawed and vortexed for 1 minute before 70% ethanol was added (1:1). The samples were mixed before addition to a spin column, and centrifuged. The column was then washed before genomic DNA was removed with DNase (Qiagen). The washing step was repeated with a stringent wash buffer and thereafter a mild buffer for washing membrane bound RNA. Total RNA was eluted with 50 μl RNase free water. RNA concentration was measured ho with a micro-volume spectrophotometer (ND-1000 spectrophotometer, NanoDrop Technologies, Wilmington, Del.) and RNA quality was evaluated using the Agilent 2100 Bioanalyzer system (Agilent Technologies Inc, Palo Alto, Calif.). cDNA was prepared from total RNA using High Capacity cDNA Reverse Transcription Kit (Applied Biosystems, Foster City, Calif., USA). Commercially available TaqMan Gene Expression Assays all from Applied Biosystems were used (Fibroblast growth factor 18 (FGF-18) and Growth and differentiation factor-5 (GDF-5)). Samples were analyzed in duplicates. The relative comparative CT method was used to analyze the real-time polymerase chain reaction (PCR) data.

horse with OA = assay: Clinical lameness examination with flexion test in horses with osteoarthritis; assay type: in vivo
From the text: Lameness examination with flexion test and treatments have been performed by a veterinarian, and the results are shown in FIG. 2A. Lameness examination with flexion test and treatments have been performed by a veterinarian, and the results are shown in FIG. 3A.

COMP neo-epitope = COMP neo-epitope concentration in synovial fluid and serum of horses with osteoarthritis; assay type: in vivo, horse; conditions: for COMP neo-epitope concentration in serum: after treatment and during rehabilitation
From the text: Diagnosis of OA may be done with methods known in the art, for example clinical examination, radiography as is known in the art or the use of biomarkers, such as, for example, the COMP protein fragment described in WO2017216289, which is incorporated herein by reference. The presence of the COMP fragment in a bodily fluid, for example serum or synovial fluid, indicates OA, in particular cartilage degradation during OA. The COMP fragment may be detected by using an antibody that specifically binds to a peptide comprising the amino acid sequence N-terminal-SGPTH. It is referred to WO2017216289 for details.
Analysis of COMP epitope concentrations in synovial fluid and serum was carried out as in WO2017216289, and is shown in FIGS. 2B and C, respectively. The presence of the COMP epitope indicates ongoing inflammation and tissue damage in the joint.

## C=C1/C(=C\C=C2/CCC[C@]3(C)[C@@H]([C@H](C)CCCC(C)(C)O)CC[C@@H]23)C[C@@H](O)C[C@@H]1O [D3, 1α,25-dihydroxyvitamin D3]
[1]; D3 (calcitriol 100 nM) by itself, 24 h, FIG. 1E
  intracellular Ca2+ release: did not have an effect

## CCCCN1CCCCC1C(=O)Nc1c(C)cccc1C (centres unmarked) [bupivacaine]
[1]; bupivacaine 10^-12 M together with metformin 1 mM, 24 h
  intracellular Ca2+ release (AUC and peak): decreased; also recorded: reduced
Human chondrocytes
  FGF18 expression: upregulated
  GDF5 expression: upregulated
Human chondrocytes; low concentration of bupivacaine
  growth factors of importance for generation of cartilage: upregulated

## CCCc1nn(C)c2c(=O)[nH]c(-c3cc(S(=O)(=O)N4CCN(C)CC4)ccc3OCC)nc12 [sildenafil]
[1]; sildenafil (1 μM, low concentration) added to bupivacaine/metformin, 24 h
  intracellular Ca2+ release (AUC and peak): increased the effect
[1]; low doses
  intracellular calcium signalling, in particular ATP-evoked: capable of inhibiting
Human chondrocytes; addition of sildenafil in low concentration to bupivacaine
  growth factors of importance for generation of cartilage: increased the effect
Human chondrocytes
  FGF18 expression: upregulated
  GDF5 expression: upregulated
Horse with OA; horse number 2, carpal joints, 10 ml intra-articular injections
  clinical lameness grade: clinical recovery
Horse with OA; horse number 3, both carpal joints, intra-articular injection
  clinical lameness grade: clinical recovery
COMP neo-epitope; horse number 2, FIG. 3C
  COMP neo-epitope concentration in serum: decrease of COMP levels to normal physiological levels
COMP neo-epitope; horse number 2, FIG. 3B
  COMP neo-epitope concentration in synovial fluid: decrease of COMP levels to normal physiological levels
COMP neo-epitope; horse number 3, FIG. 4C
  COMP neo-epitope concentration in serum: decreased levels of COMP
COMP neo-epitope; horse number 3, FIG. 4B
  COMP neo-epitope concentration in synovial fluid: decreased levels of COMP

## hyaluronic acid
Horse with OA; horse number 1, both fetlock joints, hyaluronic acid intra-articularly and corticosteroids orally
  lameness: lameness was increased
